Test results taken from patent publication US8609636B2, “Oxime derivatives as sphingosine 1-phosphate (S1P) receptor modulators” (Allergan, Inc., priority 2010, dated 2013).

Each molecule was assayed against T1, human S1P1 receptor (Homo sapiens, UniProt P21453) (assay: GTP γ35S binding assay for S1P1 activity). Settings: activity potency, S1P1 receptor from GTP γ35S binding; membranes, test range 0.08 to 5,000 nM.
T1 construct: expressed in transfected cells; membranes used
Assay type: biochemical
Protocol: Compounds were synthesized and tested for S1P1 activity using the GTP γ^35S binding assay. These compounds may be assessed for their ability to activate or block activation of the human S1P1 receptor in cells stably expressing the S1P1 receptor.
GTP γ^35S binding was measured in the medium containing (mM) HEPES 25, pH 7.4, MgCl2 10, NaCl 100, dithitothreitol 0.5, digitonin 0.003%, 0.2 nM GTP γ^35S, and 5 μg membrane protein in a volume of 150 μl. Test compounds were included in the concentration range from 0.08 to 5,000 nM unless indicated otherwise. Membranes were incubated with 100 μM 5′-adenylylimmidodiphosphate for 30 min, and subsequently with 10 μM GDP for 10 min on ice. Drug solutions and membrane were mixed, and then reactions were initiated by adding GTP γ^35S and continued for 30 min at 25° C. Reaction mixtures were filtered over Whatman GF/B filters under vacuum, and washed three times with 3 mL of ice-cold buffer (HEPES 25, pH7.4, MgCl2 10 and NaCl 100). Filters were dried and mixed with scintillant, and counted for ^35S activity using a β-counter. Agonist-induced GTP γ^35S binding was obtained by subtracting that in the absence of agonist. Binding data were analyzed using a non-linear regression method. In case of antagonist assay, the reaction mixture contained 10 nM S1P in the presence of test antagonist at concentrations ranging from 0.08 to 5000 nM.

T1 sequence (P21453 whole entry): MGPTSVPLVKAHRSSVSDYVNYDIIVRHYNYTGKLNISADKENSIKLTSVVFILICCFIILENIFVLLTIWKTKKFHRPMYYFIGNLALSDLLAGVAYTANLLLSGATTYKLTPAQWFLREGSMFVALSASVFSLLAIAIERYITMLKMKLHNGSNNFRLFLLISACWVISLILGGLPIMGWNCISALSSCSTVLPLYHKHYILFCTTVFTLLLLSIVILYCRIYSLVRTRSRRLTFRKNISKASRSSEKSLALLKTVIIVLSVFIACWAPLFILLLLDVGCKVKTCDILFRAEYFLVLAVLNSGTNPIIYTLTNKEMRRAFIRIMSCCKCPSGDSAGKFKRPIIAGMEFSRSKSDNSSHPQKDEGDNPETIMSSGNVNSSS

| Structure (SMILES) | EC50 [nM] |
| --- | --- |
| C/C(=N\OCC(Cc1ccc(C)c(C)c1)c1cccc(Cl)c1)c1ccc(CNCCCP(=O)(O)O)cc1 (stereo not shown) [Compound 4, {3-[(4-{(1E)-N-[2-(3-chlorophenyl)-3-(3,4-dimethylphenyl)propoxy]ethanimidoyl}benzyl)amino]propyl}phosphonic acid] | 3.51 |
| C/C(=N\OCc1ccc(CNCCCP(=O)(O)O)cc1)C(Cc1ccc(C)c(C)c1)c1cccc(Cl)c1 (stereo not shown) [Compound 5, [3-({4-[({[(1E)-2-(3-chlorophenyl)-3-(3,4-dimethylphenyl)-1-methylpropylidene]amino}oxy)methyl]benzyl}amino)propyl]phosphonic acid] | 2.2 |
| C/C(=N\OCC(Cc1ccc(C)c(C)c1)c1cccc(C)c1)c1ccc(CNCCCP(=O)(O)O)cc1 (stereo not shown) [Compound 2, {3-[(4-{(1E)-N-[3-(3,4-dimethylphenyl)-2-(3-methylphenyl)propoxy]ethanimidoyl}benzyl)amino]propyl}phosphonic acid] | 23.4 |
| C/C(=N\OCC(Cc1ccc(C)c(C)c1)c1cccc(C)c1)c1ccc(CNCCC(=O)O)cc1 (stereo not shown) [Compound 1, 3-[(4-{(1E)-N-[3-(3,4-dimethylphenyl)-2-(3-methylphenyl)propoxy]ethanimidoyl}benzyl)amino]propanoic acid] | 43.2 |
| C/C(=N\OCC(Cc1ccc(C)c(C)c1)c1cccc(Cl)c1)c1ccc(CNCCC(=O)O)cc1 (stereo not shown) [Compound 3, 3-[(4-{(1E)-N-[2-(3-chlorophenyl)-3-(3,4-dimethylphenyl)propoxy]ethanimidoyl}benzyl)amino]propanoic acid] | 15.6 |

Continued, values first:

| EC50 [nM] | Structure (SMILES) |
| --- | --- |
| 11.4 | C/C(=N\OCC(Oc1ccc(C)c(C)c1)c1cccc(Cl)c1)c1ccc(CNCCCP(=O)(O)O)cc1 (stereo not shown) [Compound 15, {3-[(4-{(1E)-N-[2-(3-chlorophenyl)-2-(3,4-dimethylphenoxy)ethoxy]ethanimidoyl}benzyl)amino]propyl}phosphonic acid] |
| 216 | C/C(=N\OCC(Oc1ccc(C)c(C)c1)c1cccc(Cl)c1)c1ccc(CNCCC(=O)O)cc1 (stereo not shown) [Compound 14, 3-[(4-{(1E)-N-[2-(3-chlorophenyl)-2-(3,4-dimethylphenoxy)ethoxy]ethanimidoyl}benzyl)amino]propanoic acid] |
| 6.8 | C/C(=N\OCc1ccc(CNCCC(=O)O)cc1)C(Cc1ccc(C)c(C)c1)c1cc(F)cc(F)c1 (stereo not shown) [Compound 7, 3-({4-[({[(1E)-2-(3,5-difluorophenyl)-3-(3,4-dimethylphenyl)-1-methylpropylidene]amino}oxy)methyl]benzyl}amino)propanoic acid] |
| 8.34 | C/C(=N\OCc1ccc(CNCCCP(=O)(O)O)cc1)C(Sc1ccc(C)c(C)c1)c1cccc(Cl)c1 (stereo not shown) [Compound 10, {3-[(4-{[({(1E)-2-(3-chlorophenyl)-2-[(3,4-dimethylphenyl)thio]-1-methylethylidene}amino)oxy]methyl}benzyl)amino]propyl}phosphonic acid] |
| 0.88 | C/C(=N\OCc1ccc(CNCCCP(=O)(O)O)cc1)C(Cc1ccc(C)c(C)c1)c1cc(F)cc(F)c1 (stereo not shown) [Compound 6, [3-({4-[({[(1E)-2-(3,5-difluorophenyl)-3-(3,4-dimethylphenyl)-1-methylpropylidene]amino}oxy)methyl]benzyl}amino)propyl]phosphonic acid] |
